How the values were obtained:
MBP-HupZ = biological target: T1, MBP-HupZ (Streptococcus pyogenes, UniProt Q9A0B9); experiment: UV-VIS Soret shift of heme-loaded protein; format: binding; conditions: holo protein (heme b bound); 1.6 mM imidazole as axial ligand of the heme iron; pH 7.4
T1 construct: gene SPy_0844; N-terminal MBP fusion kept (pKV135); E. coli BL21(DE3); monomer on native PAGE

tag-less HupZ = biological target: T2, tag-less HupZ (Streptococcus pyogenes, UniProt Q9A0B9); experiment: UV-VIS Soret shift of heme-loaded protein; format: binding; conditions: holo protein (heme b bound); 1.6 mM imidazole as axial ligand of the heme iron; pH 7.4
T2 construct: gene SPy_0844; full-length HupZ from His-MBP-HupZ, tag cut by TEV protease leaving a serine residue; expressed in E. coli; 15 kD on SDS-PAGE
T2 sequence (Q9A0B9 entry or part of it): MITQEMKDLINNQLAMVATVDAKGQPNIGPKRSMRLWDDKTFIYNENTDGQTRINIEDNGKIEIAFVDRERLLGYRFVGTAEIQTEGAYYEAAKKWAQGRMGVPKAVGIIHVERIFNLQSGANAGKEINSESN

T1 sequence (Q9A0B9 entry or part of it): as above

c1c[nH]cn1 [imidazole]
UV-VIS Soret shift of heme-loaded protein (MBP-HupZ): exogenous imidazole can coordinate the iron in holo tag-less and MBP-HupZ | UV-VIS Soret shift of heme-loaded protein (tag-less HupZ): exogenous imidazole can coordinate the iron in holo tag-less and MBP-HupZ

— article PMC9237417, “HupZ, a Unique Heme-Binding Protein, Enhances Group A Streptococcus Fitness During Mucosal Colonization” (Frontiers in Cellular and Infection Microbiology, 2022)
